According to patent publication US8138333B2, “Sulfonyl-indole derivatives” (Proximagen Limited, priority 2007, dated 2012):
Structures can show the parent of a compound that is named as a salt. Where two headings read alike, the source gives them in different places.

How the values were obtained:
human 5-HT6 receptor [1] = target: T1, human 5-HT6 receptor (Homo sapiens, UniProt P50406); assay: 5-HT6 intrinsic activity assay (inhibition of 5-HT induced increase in cAMP); assay type: cell-based; conditions: read-out: Antagonist potency at the h5-HT6 receptor, IC50,corr
T1 construct: expressed in transfected cells; host or cells: HEK293 (G-418 selected), membrane preparation
T1 sequence (P50406 whole entry): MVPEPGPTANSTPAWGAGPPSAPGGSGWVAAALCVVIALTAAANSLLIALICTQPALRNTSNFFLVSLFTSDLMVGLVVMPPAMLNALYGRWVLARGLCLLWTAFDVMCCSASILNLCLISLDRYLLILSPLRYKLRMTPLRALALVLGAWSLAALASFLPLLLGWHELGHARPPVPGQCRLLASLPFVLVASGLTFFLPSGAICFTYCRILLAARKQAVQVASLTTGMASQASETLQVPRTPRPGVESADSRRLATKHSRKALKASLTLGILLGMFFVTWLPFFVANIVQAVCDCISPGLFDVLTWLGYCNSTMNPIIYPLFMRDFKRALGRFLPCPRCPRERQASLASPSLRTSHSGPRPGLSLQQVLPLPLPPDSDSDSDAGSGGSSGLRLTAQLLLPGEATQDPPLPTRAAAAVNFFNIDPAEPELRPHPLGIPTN
Protocol: (b) 5-HT6 Intrinsic Activity Assay
Briefly, HEK293/5-HT6 cells were seeded in polylysine coated 96-well plates at a density of 25,000/well and grown in DMEM (Dulbecco's Modified Eagle Medium) (without phenol-red) containing 5% dialyzed Foetal Bovine Serum for 48 h at 37° C. in a 5% CO2 incubator. The medium was then aspirated and replaced by 0.1 ml assay medium (Hanks Balance Salt Solution containing 20 mM HEPES, 1.5 mM isobutylmethylxanthine and 1 mg/ml bovine serum albumin). After addition of test substances, 50 μl dissolved in assay medium, the cells were incubated for 10 min at +37° C. in a 5% CO2 incubator. The medium was again aspirated and the cAMP content was determined using a radioactive cAMP kit (Amersham Pharmacia Biotech, BIOTRAK RPA559).

human 5-HT6 receptor [2] = target: T1, human 5-HT6 receptor; assay: 5-HT6 receptor binding assay ([3H]-LSD, SPA, membranes of transfected HEK293 cells)

## O=S(=O)(c1ccccc1)n1cc2c3c(cccc31)CN(Cc1ncc[nH]1)C2 [Example 3, 4-(1H-Imidazol-2-ylmethyl)-1-(phenylsulfonyl)-1,3,4,5-tetrahydropyrrolo[4,3,2-de]isoquinoline bis(trifluoroacetate)]
Human 5-HT6 receptor [1]
  IC50: 28 nM

## CCN1Cc2cccc3c2c(cn3S(=O)(=O)c2ccccc2)C1 [Example 5, 4-Ethyl-1-(phenylsulfonyl)-1,3,4,5-tetrahydropyrrolo[4,3,2-de] isoquinoline trifluoroacetate]
Human 5-HT6 receptor [2]; read-out: Binding affinity (Ki) at the h5-HT6 receptor
  Ki: 21 nM

## NCCc1c[nH]c2ccc(O)cc12 [Example 5-HT, 5-hydroxytryptamine, reference compound]
Human 5-HT6 receptor [2]; inter assay, over three experiments
  Hill coefficient: 0.94 (SD 0.09)

## CN1CCc2cccc3c2c(cn3S(=O)(=O)c2ccccc2)C1 [Example 13, 4-Methyl-1-(phenylsulfonyl)-3,4,5,6-tetrahydro-1H-azepino[3,4,5-cd]indole hydrochloride]
Human 5-HT6 receptor [2]
  Ki: 6 nM

## O=S(=O)(c1ccccc1)n1cc2c3c(cccc31)CNCC2 [Example 15, 1-(Phenylsulfonyl)-3,4,5,6-tetrahydro-1H-azepino[5,4,3-cd]indole]
Human 5-HT6 receptor [1]
  IC50: 8 nM
